The subject of one data set is Plasma. As to the kind of experiment: Plasma concentration in mouse expressing mouse LRRK2 G2019S mutant at 30 mg/kg, po. To be noted: in vivo. Details: dose 30 mg/kg, route oral. The data set is classed as ADME, organism-based.
In the next data set the test system is Brain. As to the kind of experiment: Drug uptake in brain of mouse expressing mouse LRRK2 G2019S mutant at 30 mg/kg, po. To be noted: in vivo. Also noted: dose 30 mg/kg, route oral. The data set is classed as ADME, organism-based.
Data set [1] in a line: Ratio of drug uptake in brain to plasma of mouse expressing mouse LRRK2 G2019S mutant at 100 mg/kg, po. The format is ADME, organism-based. Details: dose 100 mg/kg, route oral. Particulars: read-out: BPR.
Data set [2] concerns the target Rho-associated protein kinase 2 (Homo sapiens) (UniProt O75116). As to the kind of experiment: Inhibition of ROCK2 (unknown origin) at 10 uM by single point assay.
Data set [3] has as its target RAF proto-oncogene serine/threonine-protein kinase (Homo sapiens) (UniProt P04049). As to the kind of experiment: Inhibition of RAF1 (unknown origin) at 10 uM by single point assay.
Data set [4] has as its target Protein kinase C beta type (Homo sapiens) (UniProt P05771). As to the kind of experiment: Inhibition of PKCbeta1 (unknown origin) at 10 uM by single point assay.
Data set [5] addresses Serine/threonine-protein kinase PLK2 (Homo sapiens) (UniProt Q9NYY3). As to the kind of experiment: Inhibition of PLK2 (unknown origin) at 10 uM by single point assay.
The target of data set [6] is Serine/threonine-protein kinase PLK1 (Homo sapiens) (UniProt P53350). As to the kind of experiment: Inhibition of PLK1 (unknown origin) at 10 uM by single point assay.
In data set [7] the target is Serine/threonine-protein kinase PAK 4 (Homo sapiens) (UniProt O96013). As to the kind of experiment: Inhibition of PAK4 (unknown origin) at 10 uM by single point assay.
The target in data set [8] is Serine/threonine-protein kinase MARK2 (Homo sapiens) (UniProt Q7KZI7). As to the kind of experiment: Inhibition of MARK2 (unknown origin) at 10 uM by single point assay.
Data set [9] deals with Glycogen synthase kinase-3 beta (Homo sapiens) (UniProt P49841). As to the kind of experiment: Inhibition of GSK3beta (unknown origin) at 10 uM by single point assay.
For data set [10], the target named is Receptor-type tyrosine-protein kinase FLT3 (Homo sapiens) (UniProt P36888). As to the kind of experiment: Inhibition of FLT3 (unknown origin) at 10 uM by single point assay.
The target of data set [11] is Receptor tyrosine-protein kinase erbB-4 (Homo sapiens) (UniProt Q15303). As to the kind of experiment: Inhibition of ErbB4 (unknown origin) at 10 uM by single point assay.
Data set [12] concerns the target T1, Serine/threonine-protein kinase Chk1 (Homo sapiens) (UniProt O14757).
T1 sequence (whole entry): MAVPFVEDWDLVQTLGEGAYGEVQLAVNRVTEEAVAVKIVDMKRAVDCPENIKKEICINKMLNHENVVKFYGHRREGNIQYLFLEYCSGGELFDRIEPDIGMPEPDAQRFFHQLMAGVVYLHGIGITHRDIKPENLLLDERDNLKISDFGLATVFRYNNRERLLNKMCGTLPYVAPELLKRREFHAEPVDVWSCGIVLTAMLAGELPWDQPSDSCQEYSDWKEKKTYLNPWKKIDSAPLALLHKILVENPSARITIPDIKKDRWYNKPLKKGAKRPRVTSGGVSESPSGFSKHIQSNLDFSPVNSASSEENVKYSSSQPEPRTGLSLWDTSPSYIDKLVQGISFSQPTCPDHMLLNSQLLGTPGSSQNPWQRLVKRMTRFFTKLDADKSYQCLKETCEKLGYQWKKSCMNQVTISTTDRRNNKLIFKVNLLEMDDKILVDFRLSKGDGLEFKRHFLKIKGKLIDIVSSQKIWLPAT
As to the kind of experiment: Inhibition of CHK1 (unknown origin) at 10 uM by single point assay.

Data set [13] has as its target Leucine-rich repeat serine/threonine-protein kinase 2 (Homo sapiens, UniProt Q5S007). Particulars: 10 uM.
Description: Inhibition of LRRK2 (unknown origin) at 10 uM by single point assay

Sequence of Glycogen synthase kinase-3 beta (Homo sapiens) (P49841 whole entry, looked up): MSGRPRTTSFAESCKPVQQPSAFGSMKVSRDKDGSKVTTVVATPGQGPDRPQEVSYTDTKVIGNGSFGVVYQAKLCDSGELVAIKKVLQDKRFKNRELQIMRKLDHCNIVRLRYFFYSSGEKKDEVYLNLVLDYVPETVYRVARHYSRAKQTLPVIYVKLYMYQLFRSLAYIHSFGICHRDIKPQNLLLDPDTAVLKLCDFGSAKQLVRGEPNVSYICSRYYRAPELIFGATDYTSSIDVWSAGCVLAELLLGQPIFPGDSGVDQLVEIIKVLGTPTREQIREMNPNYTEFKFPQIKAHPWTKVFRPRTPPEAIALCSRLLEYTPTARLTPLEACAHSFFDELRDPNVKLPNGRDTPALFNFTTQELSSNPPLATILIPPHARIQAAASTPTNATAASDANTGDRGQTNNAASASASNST
Sequence of Serine/threonine-protein kinase MARK2 (Homo sapiens) (Q7KZI7 whole entry): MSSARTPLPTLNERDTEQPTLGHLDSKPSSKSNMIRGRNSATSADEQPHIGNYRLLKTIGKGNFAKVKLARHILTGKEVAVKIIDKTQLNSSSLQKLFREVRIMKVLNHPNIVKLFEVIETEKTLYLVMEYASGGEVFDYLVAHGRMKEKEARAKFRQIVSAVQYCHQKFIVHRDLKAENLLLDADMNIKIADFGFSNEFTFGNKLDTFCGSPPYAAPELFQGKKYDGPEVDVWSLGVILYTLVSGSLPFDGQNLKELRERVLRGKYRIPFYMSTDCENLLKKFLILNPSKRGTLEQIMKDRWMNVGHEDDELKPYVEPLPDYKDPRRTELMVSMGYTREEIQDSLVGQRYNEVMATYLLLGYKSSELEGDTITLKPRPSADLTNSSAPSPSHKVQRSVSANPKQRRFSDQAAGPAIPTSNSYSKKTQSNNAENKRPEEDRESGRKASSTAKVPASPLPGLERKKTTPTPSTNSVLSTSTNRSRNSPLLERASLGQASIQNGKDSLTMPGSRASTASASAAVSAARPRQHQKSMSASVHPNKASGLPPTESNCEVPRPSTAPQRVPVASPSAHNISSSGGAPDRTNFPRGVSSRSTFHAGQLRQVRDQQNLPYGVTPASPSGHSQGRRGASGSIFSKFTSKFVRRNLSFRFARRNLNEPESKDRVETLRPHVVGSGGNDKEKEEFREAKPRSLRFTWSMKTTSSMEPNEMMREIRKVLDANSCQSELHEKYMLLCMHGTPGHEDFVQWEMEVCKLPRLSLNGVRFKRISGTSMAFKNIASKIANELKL
Sequence of RAF proto-oncogene serine/threonine-protein kinase (Homo sapiens) (P04049 whole entry): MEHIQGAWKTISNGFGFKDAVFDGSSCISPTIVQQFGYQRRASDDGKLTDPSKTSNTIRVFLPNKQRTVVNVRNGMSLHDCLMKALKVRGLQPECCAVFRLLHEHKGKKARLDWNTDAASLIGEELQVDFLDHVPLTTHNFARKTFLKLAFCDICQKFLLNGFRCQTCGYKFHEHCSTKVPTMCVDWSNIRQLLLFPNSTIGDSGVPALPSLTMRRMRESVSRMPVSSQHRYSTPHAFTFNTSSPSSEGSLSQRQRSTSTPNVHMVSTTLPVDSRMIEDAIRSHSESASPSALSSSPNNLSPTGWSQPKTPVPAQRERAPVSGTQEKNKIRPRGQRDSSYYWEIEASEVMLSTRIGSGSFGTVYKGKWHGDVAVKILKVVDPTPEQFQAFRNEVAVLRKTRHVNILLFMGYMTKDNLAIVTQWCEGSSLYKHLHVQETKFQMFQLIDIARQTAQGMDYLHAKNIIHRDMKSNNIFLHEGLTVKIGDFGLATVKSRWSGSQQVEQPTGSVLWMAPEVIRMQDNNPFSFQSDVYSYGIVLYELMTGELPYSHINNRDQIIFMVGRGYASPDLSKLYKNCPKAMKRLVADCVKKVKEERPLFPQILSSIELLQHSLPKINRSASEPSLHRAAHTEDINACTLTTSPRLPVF
Sequence of Leucine-rich repeat serine/threonine-protein kinase 2 (Q5S007 whole entry): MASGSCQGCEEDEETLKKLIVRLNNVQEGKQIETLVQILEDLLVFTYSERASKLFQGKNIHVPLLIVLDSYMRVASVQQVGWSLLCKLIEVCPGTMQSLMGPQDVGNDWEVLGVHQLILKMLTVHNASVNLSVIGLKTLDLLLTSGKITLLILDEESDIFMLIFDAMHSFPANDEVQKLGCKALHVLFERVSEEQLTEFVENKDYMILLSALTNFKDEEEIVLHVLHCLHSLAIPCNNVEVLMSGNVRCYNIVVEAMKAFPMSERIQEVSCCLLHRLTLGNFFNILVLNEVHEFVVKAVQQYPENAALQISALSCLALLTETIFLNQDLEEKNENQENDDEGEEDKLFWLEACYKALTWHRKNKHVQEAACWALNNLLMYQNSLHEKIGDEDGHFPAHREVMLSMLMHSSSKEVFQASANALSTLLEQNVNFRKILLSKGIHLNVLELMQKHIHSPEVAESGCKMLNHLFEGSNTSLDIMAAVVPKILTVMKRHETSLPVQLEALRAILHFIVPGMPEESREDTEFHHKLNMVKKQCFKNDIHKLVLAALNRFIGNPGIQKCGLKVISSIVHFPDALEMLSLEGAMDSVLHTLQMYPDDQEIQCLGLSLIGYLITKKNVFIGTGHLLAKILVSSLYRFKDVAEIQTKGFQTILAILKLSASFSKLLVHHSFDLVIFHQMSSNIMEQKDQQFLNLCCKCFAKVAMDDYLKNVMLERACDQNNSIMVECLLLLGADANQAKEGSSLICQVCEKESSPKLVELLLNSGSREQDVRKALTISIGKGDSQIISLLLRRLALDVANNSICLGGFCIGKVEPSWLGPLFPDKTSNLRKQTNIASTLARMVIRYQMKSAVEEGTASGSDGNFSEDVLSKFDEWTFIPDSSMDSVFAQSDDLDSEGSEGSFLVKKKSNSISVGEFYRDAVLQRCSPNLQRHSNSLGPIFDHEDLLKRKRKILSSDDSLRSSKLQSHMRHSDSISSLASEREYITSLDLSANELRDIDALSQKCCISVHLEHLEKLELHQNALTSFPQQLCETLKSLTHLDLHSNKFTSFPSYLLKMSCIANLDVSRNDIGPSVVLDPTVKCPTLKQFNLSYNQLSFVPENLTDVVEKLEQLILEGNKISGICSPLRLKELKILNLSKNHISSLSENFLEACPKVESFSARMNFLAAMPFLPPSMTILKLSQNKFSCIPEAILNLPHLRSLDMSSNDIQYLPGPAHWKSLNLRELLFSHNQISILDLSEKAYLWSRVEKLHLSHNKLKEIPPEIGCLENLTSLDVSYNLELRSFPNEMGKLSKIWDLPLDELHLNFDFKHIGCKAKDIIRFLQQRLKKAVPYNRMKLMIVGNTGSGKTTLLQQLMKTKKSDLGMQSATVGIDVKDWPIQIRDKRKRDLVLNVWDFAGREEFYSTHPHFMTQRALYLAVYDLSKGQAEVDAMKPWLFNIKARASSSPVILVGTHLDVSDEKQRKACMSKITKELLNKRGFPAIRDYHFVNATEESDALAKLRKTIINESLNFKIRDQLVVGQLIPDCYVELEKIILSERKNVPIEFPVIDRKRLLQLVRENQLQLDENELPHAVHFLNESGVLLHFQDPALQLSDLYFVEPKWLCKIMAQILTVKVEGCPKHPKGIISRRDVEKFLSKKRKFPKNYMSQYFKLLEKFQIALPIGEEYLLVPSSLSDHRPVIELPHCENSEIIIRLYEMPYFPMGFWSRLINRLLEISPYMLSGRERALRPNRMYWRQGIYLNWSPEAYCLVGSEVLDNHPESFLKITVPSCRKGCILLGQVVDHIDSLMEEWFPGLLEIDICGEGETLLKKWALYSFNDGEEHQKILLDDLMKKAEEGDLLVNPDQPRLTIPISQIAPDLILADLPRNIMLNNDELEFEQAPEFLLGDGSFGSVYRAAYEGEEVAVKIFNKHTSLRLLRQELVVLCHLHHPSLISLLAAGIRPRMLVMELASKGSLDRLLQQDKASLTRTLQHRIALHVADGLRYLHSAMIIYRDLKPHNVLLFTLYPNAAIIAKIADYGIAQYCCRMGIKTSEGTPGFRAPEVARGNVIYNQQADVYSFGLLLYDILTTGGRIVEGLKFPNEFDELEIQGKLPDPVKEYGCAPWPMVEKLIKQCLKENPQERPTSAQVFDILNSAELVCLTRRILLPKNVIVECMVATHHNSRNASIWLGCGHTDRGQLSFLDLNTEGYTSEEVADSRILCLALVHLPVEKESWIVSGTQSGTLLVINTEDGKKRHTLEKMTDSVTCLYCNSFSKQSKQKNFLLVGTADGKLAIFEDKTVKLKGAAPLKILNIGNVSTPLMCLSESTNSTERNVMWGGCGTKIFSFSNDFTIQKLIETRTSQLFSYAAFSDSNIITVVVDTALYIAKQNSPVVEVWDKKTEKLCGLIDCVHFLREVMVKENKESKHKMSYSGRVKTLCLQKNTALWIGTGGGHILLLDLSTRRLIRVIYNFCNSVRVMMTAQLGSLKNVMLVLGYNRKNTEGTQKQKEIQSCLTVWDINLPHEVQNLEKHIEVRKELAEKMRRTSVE
Sequence of Serine/threonine-protein kinase PAK 4 (Homo sapiens) (O96013 whole entry, looked up): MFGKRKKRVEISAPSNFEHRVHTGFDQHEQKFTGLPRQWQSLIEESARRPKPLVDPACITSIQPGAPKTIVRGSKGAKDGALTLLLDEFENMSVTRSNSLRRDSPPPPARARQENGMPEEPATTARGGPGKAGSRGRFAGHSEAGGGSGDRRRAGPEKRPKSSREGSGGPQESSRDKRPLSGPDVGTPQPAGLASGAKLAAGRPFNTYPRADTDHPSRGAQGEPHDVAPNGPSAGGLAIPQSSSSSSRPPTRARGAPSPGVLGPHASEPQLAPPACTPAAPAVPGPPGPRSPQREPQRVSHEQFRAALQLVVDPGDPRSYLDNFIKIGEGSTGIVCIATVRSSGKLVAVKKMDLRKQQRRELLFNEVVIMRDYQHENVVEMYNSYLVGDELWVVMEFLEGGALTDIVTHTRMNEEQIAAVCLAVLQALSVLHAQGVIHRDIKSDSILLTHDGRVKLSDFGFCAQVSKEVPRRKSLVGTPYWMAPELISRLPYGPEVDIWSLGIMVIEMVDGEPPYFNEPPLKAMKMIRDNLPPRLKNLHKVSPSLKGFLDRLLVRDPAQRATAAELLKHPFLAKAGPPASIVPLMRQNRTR

The molecule `CC(C)Nc1c(C#N)cnc2cc(-c3cnn(C)c3)ccc12` had a Cp in the data set with Plasma of 4.7 ng/mL. In the data set on Brain, this molecule had a Drug uptake of 4 ng/mL. In addition, the Kp in data set [1] amounted to 2.1.
As usually defined, the inhibition is the relative decrease from the control value, in per cent. Turning to `C[C@@H](Nc1c(C#N)cnc2cc(-c3ccc(-n4ccoc4=O)cc3)ccc12)C1CC1`, the inhibition in data set [2] is 16%; in [3], 6%; in data set [4], -2%; in data set [5] it was 54%; in [6] it was 8%; in data set [7] it was 19%. For the same molecule, the inhibition in data set [8] worked out at 40%; in [9] it was 1%; in [10], 44%; in [11] it was 7%; in data set [12] it was 31%; in [13], 81%.
